“And” between values parts separate entries of the source, which are not always exact repeats. Equal entries are not always repeated.
What was measured:
ET CTB [1] = target: T1, ET CTB (Vibrio cholerae serotype O1, UniProt P01556); test: biochemical; type: binding; settings: for Kd: K D
ET CTB [2] = target: T1, ET CTB; type: binding

T1 sequence (P01556 22-124 limits assumed): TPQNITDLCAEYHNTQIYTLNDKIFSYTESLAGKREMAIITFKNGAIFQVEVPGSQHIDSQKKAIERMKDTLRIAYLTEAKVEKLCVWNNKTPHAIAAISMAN

Compound | Kd (ET CTB [1]) | binding of ET CTB to GM1-coated wells after preincubation with ligand (ET CTB [2]) | binding affinity (in words) (ET CTB [1]) | binding to CTB (ET CTB [1])
CC(=O)N[C@H]1[C@@H](O[C@H]2[C@@H](O)[C@@H](CO)O[C@@H](O[C@H]3[C@H](O[C@@H]4O[C@@H](C)[C@@H](O)[C@@H](O)[C@@H]4O)[C@@H](O)[C@H](O)O[C@@H]3CO)[C@@H]2O[C@@H]2O[C@@H](C)[C@@H](O)[C@@H](O)[C@@H]2O)O[C@H](CO)[C@H](O)[C@@H]1O [A-penta-HMO, GalNAcα3[Fucα2]Galβ4[Fucα3]Glc] | 4.6 mM and 4.57 mM | interfered with binding of CTB to GM1 | – | –
CC(=O)N[C@@H]1[C@@H](O[C@@H]2O[C@@H](C)[C@@H](O)[C@@H](O)[C@@H]2O)[C@H](O[C@@H]2O[C@H](CO)[C@H](O)[C@H](O[C@H]3O[C@H](CO)[C@H](O)[C@H](O)[C@H]3NC(C)=O)[C@H]2O[C@@H]2O[C@@H](C)[C@@H](O)[C@@H](O)[C@@H]2O)[C@@H](CO)O[C@H]1O [A-penta-BGA, GalNAcα3[Fucα2]Galβ4[Fucα3]GlcNAc] | > 30 mM | – | binding very weakly | –
GalNAcα3[Fucα2]Galβ3[Fucα4]GlcNAc | – | – | – | very weak to no binding
